Source: patent US5854204A, “Aβ peptides that modulate β-amyloid aggregation” (priority 1996, dated 1998)
Numbered stars: 1 amine (or outer) side, 2 acyl side, 3 side chain; on linkers, the order of the positions; unused ones are H or OH. Square brackets hold non-standard residues; d marks the D form. Peptide text beside a SMILES is read from it. * marks the point of attachment. Cholyl = C[C@H](CCC(=O)*)[C@H]1CC[C@H]2[C@@H]3[C@H](O)C[C@@H]4C[C@H](O)CC[C@]4(C)[C@H]3C[C@H](O)[C@]12C; X2 = O=C(C1(O)C[C@H](O)[C@@H](N[*:1])[C@H]([C@H](O)[C@H](O)CO)O1)[*:2]; βAla = NCCC(=O)O

What was measured:
Aβ1-40 [1] = biological target: T1, Aβ1-40 (Homo sapiens, UniProt P05067);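 note: Aβ nucleation assay tracking fiber polymerization from monomer by turbidity (light scattering), shaken continuously in 96-well plates, read every 15 min over 5 h, compared with compound-free control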
Source text: (§1) The nucleation assay is employed to determine the ability of test compounds to alter (e.g. inhibit) the early events in formation of β-AP fibers from monomeric β-AP. […] The time delay before polymerization of β-AP monomer can be quantified as well as the extent of formation of insoluble fiber by light scattering (turbidity). Polymerization reaches equilibrium when the maximum turbidity reaches a plateau. […] The threshold of sensitivity for the measurement of turbidity is in the range of 15-20 μM β-AP. […] This assay can be performed using stirring or shaking to accelerate polymerization, thereby increasing the speed of the assay. Moreover the assay can be adapted to a 96-well plate format to screen multiple compounds.
(§2) HFIP-solubilized peptide is sonicated in a waterbath sonicator for 5 min at highest setting, then evaporated to dryness under a stream of argon. […] Test compounds are dissolved in DMSO at a 100× concentration. […] Ten microliters of the mixture is then added to the bottom of a well of a Corning Costar ultra low binding 96-well plate (Corning Costar, Cambridge Mass.; cat. No. 2500). […] The plate is then returned to the shaker and shaken continuously for 5 hours. Turbidity readings are taken at 15 minute intervals.
(§3) Accordingly a fold increase in lag time of 1.0 indicates no change in lag time, whereas numbers >1.0 indicate an increase in lag time. The "% inhibition of plateau", which is a measure of the ability of the compound to decrease the total amount of aggregation, refers to the reduction of the final turbidity in the presence of the test compound expressed as a percent of the control without the test compound.

Aβ1-40 [2] = biological target: T1, Aβ1-40; test: biochemical; conditions: read-out: % Inucl'n (percent reduction in maximum turbidity)
Source text: as §1, §2, §3

Aβ1-40 [3] = biological target: T1, Aβ1-40; test: Seeded extension assay (thioflavin T fluorescence); assay type: biochemical; set-up: Natural β-AP (β-AP1-40) was obtained commercially from Bachem (Torrance, Calif.); purchased Bachem (Torrance, Calif.); conditions: Table V; 25 mole % inhibitor
Method: The seeded extension assay can be employed to measure the rate of Aβ fiber formed in a solution of Aβ monomer following addition of polymeric Aβ fiber "seed". The ability of test compounds to prevent further deposition of monomeric Aβ to previously deposited amyloid is determined using a direct indicator of β-sheet formation using fluorescence. In contrast with the nucleation assay, the addition of seed provides immediate nucleation and continued growth of preformed fibrils without the need for continuous mixing, and thus results in the absence of a lag time before polymerization starts. Since this assay uses static polymerization conditions, the activity of positive compounds in the nucleation assay can be confirmed in this second assay under different conditions and with an additional probe of amyloid structure.
Samples of the solution are then diluted in thioflavin T (Th-T). The polymer-specific association of Th-T with Aβ produces a fluorescent complex that allows the measurement of the extent of fibril formation (Levine, H. (1993) Protein Science 2:404-410). In particular, association of Th-T with aggregated β-AP, but not monomeric or loosely associated β-AP, gives rise to a new excitation (ex) maximum at 450 nm and an enhanced emission (em) at 482 nm, compared to the 385 nm (ex) and 445 nm (em) for the free dye. Small aliquots of the polymerization mixture contain sufficient fibril to be mixed with Th-T to allow the monitoring of the reaction mixture by repeated sampling. A linear growth curve is observed in the presence of excess monomer. The formation of thioflavin T responsive β-sheet fibrils parallels the increase in turbidity observed using the nucleation assay.
To prepare the stock seed, 1 ml of the Aβ monomer preparation, is incubated for approximately 8 days at 37° C. and sheared sequentially through an 18, 23, 26 and 30 gauge needle 25, 25, 50, and 100 times respectively. 2 μl samples of the sheared material is taken for fluorescence measurements after every 50 passes through the 30 gauge needle until the fluorescence units (FU) plateau (approx. 100-150×). Test compounds are prepared by dissolving an appropriate amount of test compound in 1× PBS to a final concentration of 1 mM (10× stock). If insoluble, the compound is dissolved in 1/10 volume of DMSO and diluted in 1× PBS to 1 mM. A further 1/10 dilution is also prepared to test each candidate at both 100 μM and 10 μM.
To perform the seeded extension assay, each sample is set up with 50 μl of 200 μM monomer, 125 FU sheared seed (a variable quantity dependent on the batch of seed, routinely 3-6 μl) and 10 μl of 10× modulator solution. The sample volume is then adjusted to a final volume of 100 μl with 1× PBS. Two concentrations of each modulator typically are tested: 100 μM and 10 μM, equivalent to a 1:1 and a 1:10 molar ratio of monomer to modulator. The controls include an unseeded reaction to confirm that the fresh monomer contains no seed, and a seeded reaction in the absence of any modulators, as a reference to compare against candidate modulators. The assay is incubated at 37° C. for 6 h, taking 2 μl samples hourly for fluorescence measurements. To measure fluorescence, a 2 μl sample of Aβ is added to 400 μl of Thioflavin-T solution (50 mM Potassium Phosphate […] pH 7.5). The samples are vortexed and the fluorescence is read in a 0.5 ml micro quartz cuvette at EX 450 nm and EM 482 nm (Hitachi 4500 Fluorimeter).
The modulators were evaluated in the nucleation and seeded extension assays described in Example 6 and the results are summarized below in Table V. The change in lag time (ΔLag) is presented as the ratio of the lag time observed in the presence of the test compound to the lag time of the control. […] Inhibition (% Inucl'n) is listed as the percent reduction in the maximum observed turbidity in the control at the end of the assay time period. […]

T1 sequence (P05067 672-711): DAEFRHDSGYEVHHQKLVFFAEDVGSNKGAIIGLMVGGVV

| Compound | % Inhibition of Plateau (Aβ1-40 [1]) | inhibition at 100 % (Aβ1-40 [2]) [%] | % Iext'n (percent reduction of thioflavin-T fluorescence) (Aβ1-40 [3]) [%] | inhibition at 33 % (Aβ1-40 [2]) [%] |
| --- | --- | --- | --- | --- |
| CC(C)C[C@H](NC(=O)CC[C@@H](C)[C@H]1CC[C@H]2[C@@H]3[C@H](O)C[C@@H]4C[C@H](O)CC[C@]4(C)[C@H]3C[C@H](O)[C@]12C)C(=O)N[C@H](C(=O)N[C@@H](Cc1ccccc1)C(=O)N[C@@H](Cc1ccccc1)C(=O)N[C@@H](C)C(=O)O)C(C)C [PPI-368, cholyl-Aβ17-21] | 100% | 100 | 91 |  |
| CC(C)C[C@H](NC(=O)[C@@H](NC(=O)[C@H](Cc1ccccc1)NC(=O)[C@H](Cc1ccccc1)NC(=O)CC[C@@H](C)[C@H]1CC[C@H]2[C@@H]3[C@H](O)C[C@@H]4C[C@H](O)CC[C@]4(C)[C@H]3C[C@H](O)[C@]12C)C(C)C)C(=O)O [PPI-430] (Cholyl-FFVL-OH) |  | 33 | 75 |  |
| CC(C)C[C@H](NC(=O)CC[C@@H](C)[C@H]1CC[C@H]2[C@@H]3[C@H](O)C[C@@H]4C[C@H](O)CC[C@]4(C)[C@H]3C[C@H](O)[C@]12C)C(=O)N[C@H](C(=O)N[C@@H](Cc1ccccc1)C(=O)O)C(C)C [PPI-393] |  | 1 | 0 |  |
| CC(C)C[C@H](NC(=O)CC[C@@H](C)[C@H]1CC[C@H]2[C@@H]3[C@H](O)C[C@@H]4C[C@H](O)CC[C@]4(C)[C@H]3C[C@H](O)[C@]12C)C(=O)N[C@H](C(=O)N[C@@H](Cc1ccccc1)C(=O)N[C@@H](Cc1ccccc1)C(=O)N[C@@H](CCCCN)C(=O)O)C(C)C [PPI-407] (Cholyl-LVFFK-OH) |  |  | 85 | 100 |
| C[C@H](NC(=O)[C@H](C)NC(=O)[C@H](C)NC(=O)[C@H](C)NC(=O)[C@H](C)NC(=O)CC[C@@H](C)[C@H]1CC[C@H]2[C@@H]3[C@H](O)C[C@@H]4C[C@H](O)CC[C@]4(C)[C@H]3C[C@H](O)[C@]12C)C(=O)O [PPI-365, Cholyl-penta-alanine, reference compound] | ~ 0% | -7 | 0 |  |
| CC(C)C[C@H](NC(=O)[C@@H](NC(=O)[C@H](Cc1ccccc1)NC(=O)[C@H](CCCCN)NC(=O)[C@H](Cc1ccccc1)NC(=O)CC[C@@H](C)[C@H]1CC[C@H]2[C@@H]3[C@H](O)C[C@@H]4C[C@H](O)CC[C@]4(C)[C@H]3C[C@H](O)[C@]12C)C(C)C)C(=O)O [PPI-372] (Cholyl-FKFVL-OH) |  | 45 | 37 |  |
| CC(C)C[C@H](NC(=O)CC[C@@H](C)[C@H]1CC[C@H]2[C@@H]3[C@H](O)C[C@@H]4C[C@H](O)CC[C@]4(C)[C@H]3C[C@H](O)[C@]12C)C(=O)N[C@H](C(=O)N[C@@H](Cc1ccccc1)C(=O)N[C@@H](Cc1ccccc1)C(=O)N[C@H](C)C(=O)O)C(C)C [PPI-381] |  | 56 | 11 |  |
| CC(C)C[C@H](NC(=O)[C@H](CCCCN)NC(=O)CC[C@@H](C)[C@H]1CC[C@H]2[C@@H]3[C@H](O)C[C@@H]4C[C@H](O)CC[C@]4(C)[C@H]3C[C@H](O)[C@]12C)C(=O)N[C@H](C(=O)N[C@@H](Cc1ccccc1)C(=O)N[C@@H](Cc1ccccc1)C(=O)NCCC(=O)O)C(C)C [PPI-371] (Cholyl-KLVFF[βAla]-OH) |  | 76 | 80 |  |
| CC(C)[C@H](NC(=O)[C@@H](NC(=O)[C@H](CCCCN)NC(=O)CC[C@@H](C)[C@H]1CC[C@H]2[C@@H]3[C@H](O)C[C@@H]4C[C@H](O)CC[C@]4(C)[C@H]3C[C@H](O)[C@]12C)[C@@H](C)O)C(=O)N[C@@H](Cc1ccccc1)C(=O)N[C@@H](Cc1ccccc1)C(=O)O [PPI-375] (Cholyl-KTVFF-OH) |  | 18 | 21 |  |
| CC(C)[C@H](NC(=O)CC[C@@H](C)[C@H]1CC[C@H]2[C@@H]3[C@H](O)C[C@@H]4C[C@H](O)CC[C@]4(C)[C@H]3C[C@H](O)[C@]12C)C(=O)N[C@@H](Cc1ccccc1)C(=O)N[C@@H](Cc1ccccc1)C(=O)N[C@@H](C)C(=O)O [PPI-392] (Cholyl-VFFA-OH) |  | 76 | 10 |  |
| C[C@H](NC(=O)[C@H](Cc1ccccc1)NC(=O)[C@H](Cc1ccccc1)NC(=O)CC[C@@H](C)[C@H]1CC[C@H]2[C@@H]3[C@H](O)C[C@@H]4C[C@H](O)CC[C@]4(C)[C@H]3C[C@H](O)[C@]12C)C(=O)O [PPI-395] |  | 51 | 6 |  |
| CC(C)C[C@H](NC(=O)[C@H](CCCCN)NC(=O)CC[C@@H](C)[C@H]1CC[C@H]2[C@@H]3[C@H](O)C[C@@H]4C[C@H](O)CC[C@]4(C)[C@H]3C[C@H](O)[C@]12C)C(=O)N[C@H](C(=O)N[C@@H](Cc1ccccc1)C(=O)N[C@@H](Cc1ccccc1)C(N)=O)C(C)C [PPI-319, cholyl-Aβ16-20-amide] | ~ 0% | 70 | 52 |  |
| CC(C)C[C@H](NC(=O)CC[C@@H](C)[C@H]1CC[C@H]2[C@@H]3[C@H](O)C[C@@H]4C[C@H](O)CC[C@]4(C)[C@H]3C[C@H](O)[C@]12C)C(=O)N[C@H](C(=O)N[C@@H](Cc1ccccc1)C(=O)N[C@@H](Cc1ccccc1)C(=O)O)C(C)C [PPI-380] |  |  | 51 | 72 |
| CC(C)C[C@H](NC(=O)[C@H](CCCCN)NC(=O)[C@H](CCC(N)=O)NC(=O)CC[C@@H](C)[C@H]1CC[C@H]2[C@@H]3[C@H](O)C[C@@H]4C[C@H](O)CC[C@]4(C)[C@H]3C[C@H](O)[C@]12C)C(=O)N[C@H](C(=O)N[C@@H](Cc1ccccc1)C(=O)N[C@@H](Cc1ccccc1)C(=O)O)C(C)C [PPI-349, cholyl-Aβ15-20] |  | 100 | 56 |  |
| CC(C)C[C@H](NC(=O)[C@@H](NC(=O)[C@H](Cc1ccccc1)NC(=O)[C@H](Cc1ccccc1)NC(=O)CC[C@@H](C)[C@H]1CC[C@H]2[C@@H]3[C@H](O)C[C@@H]4C[C@H](O)CC[C@]4(C)[C@H]3C[C@H](O)[C@]12C)C(C)C)C(=O)N[C@@H](C)C(=O)O [PPI-426] (Cholyl-FFVLA-OH) |  | 100 | 89 |  |
| CC(C)[C@H](NC(=O)[C@H](C)NC(=O)CC[C@@H](C)[C@H]1CC[C@H]2[C@@H]3[C@H](O)C[C@@H]4C[C@H](O)CC[C@]4(C)[C@H]3C[C@H](O)[C@]12C)C(=O)N[C@@H](Cc1ccccc1)C(=O)N[C@@H](Cc1ccccc1)C(=O)N[C@@H](C)C(=O)O [PPI-388] (Cholyl-AVFFA-OH) |  | 68 | 44 |  |
| CC(=O)N[C@H]1[C@H]([C@H](O)[C@H](O)CO)OC(O)(C(=O)N[C@@H](CCCCN)C(=O)N[C@@H](CC(C)C)C(=O)N[C@H](C(=O)N[C@@H](Cc2ccccc2)C(=O)N[C@@H](Cc2ccccc2)C(=O)O)C(C)C)C[C@@H]1O (stereo partly drawn) [PPI-373] (Ac-[X2]KLVFF-OH) |  | 16 | 8 |  |
| CC(C)C[C@H](NC(=O)CC[C@@H](C)[C@H]1CC[C@H]2[C@@H]3[C@H](O)C[C@@H]4C[C@H](O)CC[C@]4(C)[C@H]3C[C@H](O)[C@]12C)C(=O)N[C@H](C(=O)N[C@@H](Cc1ccccc1)C(=O)N[C@@H](Cc1ccccc1)C(=O)N[C@@H](C)C(N)=O)C(C)C [PPI-382] |  | -200 | 91 |  |
